Here are results for 20 compounds from patent US9346815B2, “5-chloro-2-difluoromethoxyphenyl pyrazolopyrimidine compounds, compositions and methods of use thereof” (Genentech, Inc., priority 2014, dated 2016).

For experiment [1], the system named is JAK1-dependent STAT6 phosphorylation downstream of IL-13 stimulation in BEAS-2B human bronchial epithelial cells. Briefly: JAK1 pathway assay in BEAS-2B cells (IL-13-pSTAT6, MSD). To be noted: read-out: IL13-pSTAT6 EC50 (uM)_BEAS-2B. The format is cell-based. As to the method:
JAK1 Pathway Assay in Cell Lines was Carried Out as Follows:
Inhibitor potency (EC50) was determined in cell-based assays designed to measure JAK1 dependent STAT phosphorylation.
In one assay approach, TF-1 human erythroleukemia cells obtained from the American Type Culture Collection (ATCC; Manassas, Va.) were used to measure JAK1-dependent STAT6 phosphorylation downstream of IL-13 stimulation. Prior to use in the assays, TF-1 cells were starved of GM-CSF overnight in OptiMEM medium (Life Technologies, Grand Island, N.Y.) supplemented with 0.5% charcoal/dextran stripped fetal bovine serum (FBS), 0.1 mM non-essential amino acids (NEAA), and 1 mM sodium pyruvate. The assays were run in 384-well plates in serum-free OptiMEM medium using 300,000 cells per well. In a second assay approach, BEAS-2B human bronchial epithelial cells obtained from ATCC were plated at 100,000 cells per well of a 96-well plate one day prior to the experiment. The BEAS-2B assay was run in complete growth medium (bronchial epithelial basal medium plus bulletkit; Lonza; Basel, Switzerland).
Test compounds were serially diluted 1:2 in DMSO and then diluted 1:50 in medium just before use. Diluted compounds were added to the cells, for a final DMSO concentration of 0.2%, and incubated for 30 min (for the TF-1 assay) or 1 hr (for the BEAS-2B assay) at 37° C. Then, cells were stimulated with human recombinant cytokine at their respective EC90 concentrations, as previously determined for each individual lot. Cells were stimulated with IL-13 (R&D Systems, Minneapolis, Minn.) for 15 min at 37° C. The TF-1 cell reactions were stopped by the direct addition of 10× lysis buffer (Cell Signaling Technologies, Danvers, Mass.), whereas the BEAS-2B cell incubations were halted by the removal of medium and addition of 1× lysis buffer. The resultant samples were frozen in the plates at −80° C. Compound mediated inhibition of STAT6 phosphorylation was measured in the cell lysates using MesoScale Discovery (MSD) technology (Gaithersburg, Md.).

For experiment [2], the target named is isolated recombinant JAK1 kinase domain (Homo sapiens (Human), UniProt P23458). Nature of the experiment: JAK1 enzyme assay (Caliper LabChip, peptide phosphorylation). It counts as biochemical. To be noted: isolated recombinant JAK1 kinase domain, 25 μM ATP.
Sequence of isolated recombinant JAK1 kinase domain (P23458 875-1153): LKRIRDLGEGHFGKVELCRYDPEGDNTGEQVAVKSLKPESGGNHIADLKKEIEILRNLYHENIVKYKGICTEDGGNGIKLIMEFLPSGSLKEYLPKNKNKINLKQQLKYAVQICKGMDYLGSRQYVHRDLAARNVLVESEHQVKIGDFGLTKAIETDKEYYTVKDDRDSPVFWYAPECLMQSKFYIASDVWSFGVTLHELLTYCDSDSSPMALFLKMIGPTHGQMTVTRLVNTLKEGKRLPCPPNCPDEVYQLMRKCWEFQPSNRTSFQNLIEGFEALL
Experiment [3] addresses isolated recombinant JAK2 kinase domain (Homo sapiens (Human), UniProt O60674). Briefly: JAK2 enzyme assay (Caliper LabChip, peptide phosphorylation). It counts as biochemical. As to conditions: 25 μM ATP.

Sequence of isolated recombinant JAK2 kinase domain (O60674 849-1124): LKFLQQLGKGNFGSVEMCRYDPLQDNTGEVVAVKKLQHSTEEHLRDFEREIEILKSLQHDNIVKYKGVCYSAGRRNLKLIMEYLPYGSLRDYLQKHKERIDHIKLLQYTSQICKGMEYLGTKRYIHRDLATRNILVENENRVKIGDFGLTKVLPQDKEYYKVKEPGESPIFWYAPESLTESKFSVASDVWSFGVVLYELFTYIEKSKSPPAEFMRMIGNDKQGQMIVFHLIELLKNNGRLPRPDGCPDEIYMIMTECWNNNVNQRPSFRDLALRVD

One may read the EC50 as the concentration needed to bring the measured effect to its halfway point. Usually Ki stands for the dissociation constant of the complex between target and ligand, obtained from inhibition or displacement. For `COC(=O)CCN1CCN(C(=O)Cn2cc(NC(=O)c3cnn4cccnc34)c(-c3cc(Cl)ccc3OC(F)F)n2)CC1` [Example 331, methyl 3-[4-(2-[3-[5-chloro-2-(difluoromethoxy)phenyl]-4-[pyrazolo[1,5-a]pyrimidine-3-amido]-1H-pyrazol-1-yl]acetyl)piperazin-1-yl]propanoate], the half-maximal effective concentration (EC50) in experiment [1] came out at 0.0176 µM. Also, the inhibition constant (Ki) in experiment [2] was 0.39 nM.

Regarding `O=C(O)CCN1CCN(C(=O)Cn2cc(NC(=O)c3cnn4cccnc34)c(-c3cc(Cl)ccc3OC(F)F)n2)CC1` [Example 353, 3-[4-(2-[3-[5-chloro-2-(difluoromethoxy)phenyl]-4-[pyrazolo[1,5-a]pyrimidine-3-amido]-1H-pyrazol-1-yl]acetyl)piperazin-1-yl]propanoic acid], the EC50 in experiment [1] worked out at 3.61 µM. In experiment [2], the inhibition constant (Ki) turned out to be 0.32 nM.

As for `CCOC(=O)CNC1CCN(C(=O)Cn2cc(NC(=O)c3cnn4cccnc34)c(-c3cc(Cl)ccc3OC(F)F)n2)CC1` [Example 364, ethyl 2-[[1-(2-[3-[5-chloro-2-(difluoromethoxy)phenyl]-4-[pyrazolo[1,5-a]pyrimidine-3-amido]-1H-pyrazol-1-yl]acetyl)piperidin-4-yl]amino]acetate], the Ki in experiment [3] came to 1.6 nM. The EC50 in experiment [1] was determined as 0.0952 µM.

On to `O=C(Nc1cn(CCNCc2cccnc2)nc1-c1cc(Cl)ccc1OC(F)F)c1cnn2cccnc12` [Example 368, N-[3-[5-chloro-2-(difluoromethoxy)phenyl]-1-[2-[(pyridin-3-ylmethyl)amino]ethyl]-1H-pyrazol-4-yl]pyrazolo[1,5-a]pyrimidine-3-carboxamide], for which the inhibition constant (Ki) in experiment [3] came to 0.51 nM. Further, the half-maximal effective concentration (EC50) in experiment [1] is 0.056 µM.

Turning to `C[C@@H](NCCn1cc(NC(=O)c2cnn3cccnc23)c(-c2cc(Cl)ccc2OC(F)F)n1)c1ccccc1` [Example 384, N-[3-[5-chloro-2-(difluoromethoxy)phenyl]-1-(2-[[(1R)-1-phenylethyl]amino]ethyl)-1H-pyrazol-4-yl]pyrazolo[1,5-a]pyrimidine-3-carboxamide], the Ki in experiment [3] was 0.23 nM. Further, the EC50 in experiment [1] stood at 0.139 µM.

As for `C[C@H](NCCn1cc(NC(=O)c2cnn3cccnc23)c(-c2cc(Cl)ccc2OC(F)F)n1)c1ccccc1` [Example 385, N-[3-[5-chloro-2-(difluoromethoxy)phenyl]-1-(2-[[(1S)-1-phenylethyl]amino]ethyl)-1H-pyrazol-4-yl]pyrazolo[1,5-a]pyrimidine-3-carboxamide], the Ki in experiment [3] was determined as 0.3 nM. For the same compound, the concentration giving a half-maximal response (EC50) in experiment [1] was found to be 0.163 µM.

Turning to `CN1CCN(C/C=C/Cn2cc(NC(=O)c3cnn4cccnc34)c(-c3cc(Cl)ccc3OC(F)F)n2)CC1` [Example 395, N-[3-[5-chloro-2-(difluoromethoxy)phenyl]-1-[(2E)-4-(4-methylpiperazin-1-yl)but-2-en-1-yl]-1H-pyrazol-4-yl]pyrazolo[1,5-a]pyrimidine-3-carboxamide], in experiment [1], the EC50 was found to be 0.0224 µM. Also, the inhibition constant Ki in experiment [2] was 1.29 nM.

As for `CSCCOC(=O)CNCCn1cc(NC(=O)c2cnn3cccnc23)c(-c2cc(Cl)ccc2OC(F)F)n1` [Example 396, 2-(methylthio)ethyl 2-(2-(3-(5-chloro-2-(difluoromethoxy)phenyl)-4-(pyrazolo[1,5-a]pyrimidine-3-carboxamido)-1H-pyrazol-1-yl)ethylamino)acetate], the EC50 in experiment [1] worked out at 0.0382 µM. The inhibition constant Ki in experiment [2] was 3.29 nM.

Regarding `CN(C)C(=O)CNC1CCN(C(=O)Cn2cc(NC(=O)c3cnn4cccnc34)c(-c3cc(Cl)ccc3OC(F)F)n2)CC1` [Example 401, N-(3-(5-chloro-2-(difluoromethoxy)phenyl)-1-(2-(4-(2-(dimethylamino)-2-oxoethylamino)piperidin-1-yl)-2-oxoethyl)-1H-pyrazol-4-yl)pyrazolo[1,5-a]pyrimidine-3-carboxamide], the EC50 in experiment [1] was 0.152 µM. Besides, the Ki in experiment [2] stood at 0.75 nM.

For `O=C(Nc1cn(CC(O)CN2CCOCC2)nc1-c1cc(Cl)ccc1OC(F)F)c1cnn2cccnc12` (centres unmarked) [Example 403, N-(3-(5-chloro-2-(difluoromethoxy)phenyl)-1-(2-hydroxy-3-morpholinopropyl)-1H-pyrazol-4-yl)pyrazolo[1,5-a]pyrimidine-3-carboxamide], the EC50 in experiment [1] is 0.0283 µM. Moreover, the Ki in experiment [2] is 1.46 nM.

Consider `N#CC1CCN(C2CCN(C(=O)Cn3cc(NC(=O)c4cnn5cccnc45)c(-c4cc(Cl)ccc4OC(F)F)n3)CC2)C1` (centres unmarked) [Example 409, N-(3-(5-chloro-2-(difluoromethoxy)phenyl)-1-(2-(4-(3-cyanopyrrolidin-1-yl)piperidin-1-yl)-2-oxoethyl)-1H-pyrazol-4-yl)pyrazolo[1,5-a]pyrimidine-3-carboxamide], for which the inhibitory constant (Ki) in experiment [3] came to 0.89 nM. In addition, the EC50 in experiment [1] was found to be 0.0196 µM.

With `O=C(CN1CCOCC1)Cn1cc(NC(=O)c2cnn3cccnc23)c(-c2cc(Cl)ccc2OC(F)F)n1` [Example 412, N-(3-(5-chloro-2-(difluoromethoxy)phenyl)-1-(3-morpholino-2-oxopropyl)-1H-pyrazol-4-yl)pyrazolo[1,5-a]pyrimidine-3-carboxamide], in experiment [1], the 50% effective concentration (EC50) was 0.0395 µM. Besides, the Ki in experiment [2] was 1.7 nM.

As to `CN1CCN(C2CCN(C(=O)Cn3cc(NC(=O)c4cnn5cccnc45)c(-c4cc(Cl)ccc4OC(F)F)n3)CC2)CC1=O` [Example 416, N-(3-(5-chloro-2-(difluoromethoxy)phenyl)-1-(2-(4-(4-methyl-3-oxopiperazin-1-yl)piperidin-1-yl)-2-oxoethyl)-1H-pyrazol-4-yl)pyrazolo[1,5-a]pyrimidine-3-carboxamide], in experiment [1], the EC50 was 0.0316 µM. Also, in experiment [2], the Ki is 0.41 nM.

On to `CN(C1CCN(C(=O)Cn2cc(NC(=O)c3cnn4cccnc34)c(-c3cc(Cl)ccc3OC(F)F)n2)CC1)[C@@H]1CCOC1` [Example 432, N-(3-(5-chloro-2-(difluoromethoxy)phenyl)-1-(2-(4-(methyl((R)-tetrahydrofuran-3-yl)amino)piperidin-1-yl)-2-oxoethyl)-1H-pyrazol-4-yl)pyrazolo[1,5-a]pyrimidine-3-carboxamide], for which, in experiment [1], the EC50 is 0.0326 µM. Besides, in experiment [2], the Ki was 0.4 nM.

In the case of `CN(CC1(C)OCCO1)C1CCN(C(=O)Cn2cc(NC(=O)c3cnn4cccnc34)c(-c3cc(Cl)ccc3OC(F)F)n2)CC1` [Example 438, N-(3-(5-chloro-2-(difluoromethoxy)phenyl)-1-(2-(4-(methyl((2-methyl-1,3-dioxolan-2-yl)methyl)amino)piperidin-1-yl)-2-oxoethyl)-1H-pyrazol-4-yl)pyrazolo[1,5-a]pyrimidine-3-carboxamide], the EC50 in experiment [1] stood at 0.015 µM. Besides, in experiment [2], the Ki is 0.59 nM.

`CN(C1CCN(C(=O)Cn2cc(NC(=O)c3cnn4cccnc34)c(-c3cc(Cl)ccc3OC(F)F)n2)CC1)[C@H]1CCOC1` [Example 442, N-(3-(5-chloro-2-(difluoromethoxy)phenyl)-1-(2-(4-(methyl((S)-tetrahydrofuran-3-yl)amino)piperidin-1-yl)-2-oxoethyl)-1H-pyrazol-4-yl)pyrazolo[1,5-a]pyrimidine-3-carboxamide]: in experiment [1], the EC50 is 0.0194 µM. In experiment [2], the inhibition constant Ki came out at 0.33 nM.

For `O=C(Nc1cn(CC(=O)N2CCC(N3CC[S+]([O-])CC3)CC2)nc1-c1cc(Cl)ccc1OC(F)F)c1cnn2cccnc12` [Example 443], the half-maximal effective concentration (EC50) in experiment [1] worked out at 0.0663 µM.

In the case of `O=C(Nc1cn(Cc2cn(C3CCN(C4CCOCC4)CC3)nn2)nc1-c1cc(Cl)ccc1OC(F)F)c1cnn2cccnc12` [Example 457, N-(3-(5-chloro-2-(difluoromethoxy)phenyl)-1-((1-(1-(tetrahydro-2H-pyran-4-yl)piperidin-4-yl)-1H-1,2,3-triazol-4-yl)methyl)-1H-pyrazol-4-yl)pyrazolo[1,5-a]pyrimidine-3-carboxamide], the 50% effective concentration (EC50) in experiment [1] is 0.0156 µM. For the same compound, the Ki in experiment [2] came out at 0.45 nM.

For `CN(C1CCN(C(=O)Cn2cc(NC(=O)c3cnn4cccnc34)c(-c3cc(Cl)ccc3OC(F)F)n2)CC1)C1COC1` [Example 459, N-(3-(5-chloro-2-(difluoromethoxy)phenyl)-1-(2-(4-(methyl(oxetan-3-yl)amino)piperidin-1-yl)-2-oxoethyl)-1H-pyrazol-4-yl)pyrazolo[1,5-a]pyrimidine-3-carboxamide], in experiment [1], the EC50 was determined as 0.0075 µM. Also, the Ki in experiment [2] worked out at 0.3 nM.

As for `CN(CC1(C#N)CC1)C1CCN(C(=O)Cn2cc(NC(=O)c3cnn4cccnc34)c(-c3cc(Cl)ccc3OC(F)F)n2)CC1` [Example 467, N-(3-(5-chloro-2-(difluoromethoxy)phenyl)-1-(2-(4-(((1-cyanocyclopropyl)methyl) (methyl)amino)piperidin-1-yl)-2-oxoethyl)-1H-pyrazol-4-yl)pyrazolo[1,5-a]pyrimidine-3-carboxamide], the EC50 in experiment [1] turned out to be 0.0075 µM.
